Active and inactive are the calls of the source. The rule behind the calls is not given here.
Key:
MKN-45 [1] = assay: Induction of apoptosis in human MKN-45 cells assessed as necrotic cells 20 nM incubated for 48 hrs by FITC-annexin V/propidium iodide staining based flow cytometry (reference value: 10.3%); format: functional
[2] = molecular target: T1, Signal transducer and activator of transcription 3 (Homo sapiens, UniProt P40763); assay: Inhibition of human recombinant STAT3 (127 to 722 residues) transcriptional activity expressed in HEK293T cells in presence of IL-6 by Dual-luciferase reporter gene assay; format: cell-based
[3] = Inhibition of ATP production in human MKN-45 cells incubated for 20 to 24 hrs by ATP assay kit method; format: functional, cell-based
[4] = molecular target: T1, Signal transducer and activator of transcription 3; assay: Inhibition of STAT3 phosphorylation at Ser727 residue in human AGS cells upto 40 nM incubated upto 24 hrs by Western blotting analysis; format: cell-based
[5] = molecular target: T1, Signal transducer and activator of transcription 3; assay: Binding affinity to human STAT3-SH2 domain (127 to 722 residues) assessed as dissociation constant by MST assay
[6] = molecular target: T1, Signal transducer and activator of transcription 3; assay: Binding affinity to human STAT3 transfected in HEK293T cells assessed as change in melting temperature at 5 uM by thermal shift assay; format: cell-based
[7] = molecular target: Mitogen-activated protein kinase 8 (Homo sapiens, UniProt P45983); assay: Inhibition of JNK1 (unknown origin)
[8] = molecular target: T1, Signal transducer and activator of transcription 3; assay: Inhibition of STAT3 in human MKN-45 cells assessed as downregulation of c-Myc expression incubated up to 24 hrs by western blot analysis; format: cell-based; details: dose <= 40.0 nM, DDE = dose-dependent effect
[9] = molecular target: T1, Signal transducer and activator of transcription 3; assay: Inhibition of STAT3 in human MGC-803 cells assessed as downregulation of c-Myc expression incubated up to 24 hrs by western blot analysis; format: cell-based; details: dose <= 40.0 nM, DDE = dose-dependent effect
MKN-45 [10] = assay: Inhibition of mitochondrial respiration in human MKN-45 cells assessed as decrease in basal oxygen consumption rate at 1 to 100 nM incubated for 1 hr by Seahorse XF24 extracellular flux analyzer; format: functional, cell-based; details: dose 1-100 nM
MKN-45 [11] = assay: Inhibition of mitochondrial respiration in STAT3 knockdown human MKN-45 cells assessed as basal oxygen consumption rate incubated for 80 mins […]; format: functional, cell-based
[12] = Antiproliferative activity against human HPNE cells assessed as cell viability measured upto 1 uM incubated for 72 hrs by MTS assay; format: toxicity, cell-based; details: htert-hpne
MGC-803 [13] = assay: Inhibition of colony formation in human MGC-803 cells assessed as reduction in number of colonies incubated for 5 to 7 days by crystal violet staining based assay; format: functional, cell-based; details: dose <= 20.0 nM, time 5-7 day, DDE = dose-dependent effect
MKN-45 [14] = assay: Induction of apoptosis in human MKN-45 cells assessed as viable cells at 10 nM incubated for 48 hrs by FITC-annexin V/propidium iodide staining based flow cytometry (reference value: 68%); format: functional; details: read-out: Activity
MKN-45 [15] = assay: Induction of apoptosis in human MKN-45 cells assessed as late apoptic cells 10 nM incubated for 48 hrs by FITC-annexin V/propidium iodide staining based flow cytometry (reference value: 17.9%); format: functional
MKN-45 [16] = assay: Induction of apoptosis in human MKN-45 cells assessed as necrotic cells 10 nM incubated for 48 hrs by FITC-annexin V/propidium iodide staining based flow cytometry (reference value: 10.3%); format: functional
MKN-45 [17] = assay: Induction of apoptosis in human MKN-45 cells assessed as viable cells at 20 nM incubated for 48 hrs by FITC-annexin V/propidium iodide staining based flow cytometry (reference value: 68%); format: functional; details: read-out: Activity
AGS [18] = assay: Induction of apoptosis in human AGS cells assessed as early apoptic cells 5 nM incubated for 48 hrs by FITC-annexin V/propidium iodide staining based flow cytometry (reference value: 0.55%); format: functional
AGS [19] = assay: Induction of apoptosis in human AGS cells assessed as early apoptic cells 10 nM incubated for 48 hrs by FITC-annexin V/propidium iodide staining based flow cytometry (reference value: 0.55%); format: functional
AGS [20] = assay: Induction of apoptosis in human AGS cells assessed as early apoptic cells 20 nM incubated for 48 hrs by FITC-annexin V/propidium iodide staining based flow cytometry (reference value: 0.55%); format: functional
AGS [21] = assay: Induction of apoptosis in human AGS cells assessed as late apoptic cells 20 nM incubated for 48 hrs by FITC-annexin V/propidium iodide staining based flow cytometry (reference value: 9.56%); format: functional
Cytochrome P450 1A2 = molecular target: T2, Cytochrome P450 1A2 (Homo sapiens, UniProt P05177); assay: Inhibition of CYP1A2 in human liver microsome; format: ADME, microsomes
T2 sequence (P05177 whole entry): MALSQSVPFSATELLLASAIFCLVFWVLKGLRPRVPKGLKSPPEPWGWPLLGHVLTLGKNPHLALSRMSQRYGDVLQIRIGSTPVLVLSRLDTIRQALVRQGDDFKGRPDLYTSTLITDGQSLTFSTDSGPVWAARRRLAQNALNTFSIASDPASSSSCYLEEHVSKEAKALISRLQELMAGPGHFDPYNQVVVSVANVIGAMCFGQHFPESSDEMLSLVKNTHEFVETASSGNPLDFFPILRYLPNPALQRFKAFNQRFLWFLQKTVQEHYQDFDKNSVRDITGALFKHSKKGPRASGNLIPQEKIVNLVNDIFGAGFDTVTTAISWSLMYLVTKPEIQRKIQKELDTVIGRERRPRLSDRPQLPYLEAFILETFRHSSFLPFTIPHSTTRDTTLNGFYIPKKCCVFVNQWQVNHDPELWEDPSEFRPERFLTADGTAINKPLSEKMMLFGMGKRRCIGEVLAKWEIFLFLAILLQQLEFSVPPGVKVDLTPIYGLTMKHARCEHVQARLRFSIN

Cytochrome P450 2C19 = Cytochrome P450 2C19 (Homo sapiens, UniProt P33261); assay: Inhibition of CYP2C19 in human liver microsome; format: ADME, microsomes
Cytochrome P450 2D6 = Cytochrome P450 2D6 (Homo sapiens, UniProt P10635); assay: Inhibition of CYP2D6 in human liver microsome; format: ADME, microsomes
[22] = Cmax in ICR mouse plasma at 10 mg/kg, po measured up to 24 hrs by LC-MS/MS analysis; format: ADME, organism-based; design: dose 10 mg/kg, time < 24 hrs, route po
MKN-45 [23] = assay: Inhibition of colony formation in STAT3 knockdown human MKN-45 cells assessed as reduction in number of colonies incubated for 5 to 7 days by crystal violet staining based assay; format: functional, cell-based; details: time 5-7 day
MGC-803 [24] = assay: Inhibition of colony formation in STAT3 knockdown human MGC-803 cells assessed as reduction in number of colonies incubated for 5 to 7 days by crystal violet staining based assay; format: functional, cell-based; details: time 5-7 day
MKN-45 [25] = assay: In vivo inhibition of STAT3 phosphorylation at Tyr705 residue in human MKN-45 cells xenografted in BALB/c nude mouse at 25 to 50 mg/kg, po qd administered for 5 weeks by immunohistochemical analysis; format: functional, organism-based; details: dose 25-50 mg/kg
MKN-45 [26] = assay: In vivo inhibition of STAT3 phosphorylation at Ser727 residue in human MKN-45 cells xenografted in BALB/c nude mouse at 25 to 50 mg/kg, po qd administered for 5 weeks by immunohistochemical analysis; format: functional, organism-based; details: dose 25-50 mg/kg
[27] = Toxicity in […] mouse xenografted with human MKN-45 cells assessed as spleen damage at 25 to 50 mg/kg, po qd administered for 5 weeks by H and E staining based analysis; format: organism-based; details: in vivo, 840 h, dose 25-50 mg/kg

T1 sequence (P40763 whole entry, the tested form may be a part): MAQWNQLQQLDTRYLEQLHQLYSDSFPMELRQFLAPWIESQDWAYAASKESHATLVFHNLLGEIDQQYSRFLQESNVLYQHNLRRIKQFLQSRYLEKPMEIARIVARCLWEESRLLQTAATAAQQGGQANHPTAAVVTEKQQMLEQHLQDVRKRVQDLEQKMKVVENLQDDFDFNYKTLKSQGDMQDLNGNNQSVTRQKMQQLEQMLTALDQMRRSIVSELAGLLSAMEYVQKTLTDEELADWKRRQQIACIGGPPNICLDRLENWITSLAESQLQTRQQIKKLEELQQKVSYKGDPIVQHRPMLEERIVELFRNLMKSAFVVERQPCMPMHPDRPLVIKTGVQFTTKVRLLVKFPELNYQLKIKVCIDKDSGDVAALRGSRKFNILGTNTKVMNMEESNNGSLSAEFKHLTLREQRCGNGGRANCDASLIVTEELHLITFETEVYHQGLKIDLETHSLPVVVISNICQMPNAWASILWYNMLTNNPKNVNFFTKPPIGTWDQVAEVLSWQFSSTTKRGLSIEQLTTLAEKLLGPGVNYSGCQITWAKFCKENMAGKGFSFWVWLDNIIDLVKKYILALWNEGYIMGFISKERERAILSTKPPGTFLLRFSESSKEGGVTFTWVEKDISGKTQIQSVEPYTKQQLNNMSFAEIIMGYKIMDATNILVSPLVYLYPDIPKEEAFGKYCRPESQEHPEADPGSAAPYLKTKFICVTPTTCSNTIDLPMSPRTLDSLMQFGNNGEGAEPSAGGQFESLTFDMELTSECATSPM
Sequence of Cytochrome P450 2C19 (P33261 whole entry): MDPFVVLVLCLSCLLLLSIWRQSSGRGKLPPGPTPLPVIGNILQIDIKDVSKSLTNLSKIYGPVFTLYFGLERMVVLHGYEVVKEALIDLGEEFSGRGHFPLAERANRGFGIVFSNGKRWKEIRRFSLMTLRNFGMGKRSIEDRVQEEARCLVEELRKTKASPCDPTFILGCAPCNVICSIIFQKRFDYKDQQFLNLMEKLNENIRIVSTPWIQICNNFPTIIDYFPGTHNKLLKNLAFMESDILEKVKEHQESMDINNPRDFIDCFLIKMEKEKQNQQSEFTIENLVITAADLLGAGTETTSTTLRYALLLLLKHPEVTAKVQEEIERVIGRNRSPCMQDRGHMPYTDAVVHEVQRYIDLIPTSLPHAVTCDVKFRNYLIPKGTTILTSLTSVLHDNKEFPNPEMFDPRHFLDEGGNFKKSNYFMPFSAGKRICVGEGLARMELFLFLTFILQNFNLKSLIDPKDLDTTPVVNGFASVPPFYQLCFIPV
Sequence of Cytochrome P450 2D6 (P10635 whole entry): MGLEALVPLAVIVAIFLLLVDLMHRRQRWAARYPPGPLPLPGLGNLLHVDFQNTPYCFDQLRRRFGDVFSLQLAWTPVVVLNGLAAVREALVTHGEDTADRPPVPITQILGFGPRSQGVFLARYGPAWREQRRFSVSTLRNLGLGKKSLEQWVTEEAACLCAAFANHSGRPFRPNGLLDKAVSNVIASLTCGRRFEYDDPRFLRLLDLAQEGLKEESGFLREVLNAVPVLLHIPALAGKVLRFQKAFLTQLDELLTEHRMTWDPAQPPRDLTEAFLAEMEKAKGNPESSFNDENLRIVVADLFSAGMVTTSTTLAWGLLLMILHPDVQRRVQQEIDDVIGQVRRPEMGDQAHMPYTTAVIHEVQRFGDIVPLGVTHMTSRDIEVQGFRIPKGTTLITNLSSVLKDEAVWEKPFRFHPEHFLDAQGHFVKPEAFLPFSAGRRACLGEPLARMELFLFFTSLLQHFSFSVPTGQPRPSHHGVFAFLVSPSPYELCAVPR
Sequence of Mitogen-activated protein kinase 8 (P45983 whole entry): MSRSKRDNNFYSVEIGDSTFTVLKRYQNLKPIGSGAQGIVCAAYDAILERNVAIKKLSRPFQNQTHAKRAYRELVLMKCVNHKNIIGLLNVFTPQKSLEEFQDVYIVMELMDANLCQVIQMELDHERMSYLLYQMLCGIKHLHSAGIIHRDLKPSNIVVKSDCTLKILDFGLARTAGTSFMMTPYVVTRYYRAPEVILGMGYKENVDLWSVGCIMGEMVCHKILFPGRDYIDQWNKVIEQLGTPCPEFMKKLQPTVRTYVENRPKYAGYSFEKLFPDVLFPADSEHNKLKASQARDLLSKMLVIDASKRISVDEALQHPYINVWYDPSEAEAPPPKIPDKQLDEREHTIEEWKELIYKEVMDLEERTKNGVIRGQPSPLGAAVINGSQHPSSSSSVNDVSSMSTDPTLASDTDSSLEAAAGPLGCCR

O=C(c1ccc(-c2noc(-c3ccc(C(F)(F)F)cc3)n2)cc1)N1CCN(Cc2ccc(OCC(F)(F)F)cc2)CC1
Activity (MKN-45 [1]): 11.3% | IC50 [2]: 27.8 nM | IC50 [3]: 24.7 nM | inhibition [4]: 100% | Kd [5]: 114 nM | Activity [6]: Active | IC50 [7]: > 10 µM | inhibition [8]: Dde | inhibition [9]: Dde | inhibition (MKN-45 [10]): Active | inhibition (MKN-45 [11]): Active | Activity [12]: Non-Toxic | inhibition (MGC-803 [13]): Dde | viability at 0.01 µM (MKN-45 [14]): 68.5% | Activity (MKN-45 [15]): 19.6% | Activity (MKN-45 [16]): 9.14% | viability at 0.02 µM (MKN-45 [17]): 60.7% | Activity (AGS [18]): 2.7% | Activity (AGS [19]): 2.57% | Activity (AGS [20]): 3.8% | Activity (AGS [21]): 27.1% | IC50 (Cytochrome P450 1A2): > 50 µM | IC50 (Cytochrome P450 2C19): 15.9 µM | IC50 (Cytochrome P450 2D6): > 50 µM | Cmax [22]: 529 ng/mL | inhibition (MKN-45 [23]): Active | inhibition (MGC-803 [24]): Active | inhibition (MKN-45 [25]): Active | inhibition (MKN-45 [26]): Active | Activity [27]: Non-Toxic

From ChEMBL document CHEMBL5108044, “Discovery of a Novel Potent STAT3 Inhibitor HP590 with Dual p-Tyr705/Ser727 Inhibitory Activity for Gastric Cancer Treatment” (J Med Chem, 2022)
